Experimental data from patent US20220018852A1, “METHODS AND KITS FOR DETECTING LIVER DYSFUNCTION IN A SUBJECT” (priority 2018, published 2022).
Values joined by “and” are separate entries in the source; they are usually repeats but may differ in a detail not shown here. Equal values may be shown once. Where a name gives a salt, the structure may show the parent alone.

Key:
albumin of rats = biological target: T1, albumin of rats (Rattus norvegicus, UniProt P02770); assay: SEB test applied to serum of ethanol-treated rats; format: binding; conditions: L-thyroxine at 1/5, Au at 1/50
T1 construct: The SEB test was performed in the serum of all groups of rats; from tissue; host or cells: serum of male Wistar rats (ethanol-treated and control)

HSA [1] = biological target: T2, HSA (Homo sapiens, UniProt P02768); assay: Enhanced binding capacity of serum/HSA: serum of patients with no liver dysfunction spiked with ligand, ultrafiltration, ICP-MS of unbound ligand
HSA [2] = biological target: T2, HSA; assay: SEB test, development cohort: 45 cirrhotic vs 45 control patients; format: binding; conditions: 45 cirrhotic vs 45 controls
HSA [3] = biological target: T2, HSA; assay: Same binding test with Vialebex commercial albumin solution at 200 mg/mL; conditions: Vialebex commercial solution of pure HSA
HSA [4] = biological target: T2, HSA; conditions: literature [21]; cited from earlier work
HSA [5] = biological target: T2, HSA; assay: SEB test, discovery cohort: cirrhotic patients vs patients with no liver dysfunction; format: binding; conditions: for sensitivity of discrimination of cirrhotic from control patients / specificity of discrimination of cirrhotic from control patients: discovery cohort, 18 cirrhotic vs 18 controls, HSA/ligand Au 1/100, Cu 1/10, dansylsarcosine 1/5, L-thyroxine 1/10

T2 sequence (P02768 25-609): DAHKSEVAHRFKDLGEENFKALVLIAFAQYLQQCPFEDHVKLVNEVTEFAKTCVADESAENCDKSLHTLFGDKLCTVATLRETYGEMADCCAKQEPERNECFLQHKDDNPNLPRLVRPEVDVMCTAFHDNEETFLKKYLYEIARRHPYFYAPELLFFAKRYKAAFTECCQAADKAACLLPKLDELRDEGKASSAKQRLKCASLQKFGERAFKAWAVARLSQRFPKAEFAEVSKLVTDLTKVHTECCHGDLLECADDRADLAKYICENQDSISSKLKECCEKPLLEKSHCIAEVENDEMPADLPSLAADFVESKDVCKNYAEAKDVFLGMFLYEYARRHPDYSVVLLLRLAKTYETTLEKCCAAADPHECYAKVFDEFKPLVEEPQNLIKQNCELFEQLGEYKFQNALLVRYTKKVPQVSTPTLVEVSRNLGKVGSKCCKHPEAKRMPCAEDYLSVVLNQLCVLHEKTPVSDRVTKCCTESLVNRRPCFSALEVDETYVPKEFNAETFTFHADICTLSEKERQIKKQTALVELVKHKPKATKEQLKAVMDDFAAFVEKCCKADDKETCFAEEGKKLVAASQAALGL
T1 sequence (P02770 25-608): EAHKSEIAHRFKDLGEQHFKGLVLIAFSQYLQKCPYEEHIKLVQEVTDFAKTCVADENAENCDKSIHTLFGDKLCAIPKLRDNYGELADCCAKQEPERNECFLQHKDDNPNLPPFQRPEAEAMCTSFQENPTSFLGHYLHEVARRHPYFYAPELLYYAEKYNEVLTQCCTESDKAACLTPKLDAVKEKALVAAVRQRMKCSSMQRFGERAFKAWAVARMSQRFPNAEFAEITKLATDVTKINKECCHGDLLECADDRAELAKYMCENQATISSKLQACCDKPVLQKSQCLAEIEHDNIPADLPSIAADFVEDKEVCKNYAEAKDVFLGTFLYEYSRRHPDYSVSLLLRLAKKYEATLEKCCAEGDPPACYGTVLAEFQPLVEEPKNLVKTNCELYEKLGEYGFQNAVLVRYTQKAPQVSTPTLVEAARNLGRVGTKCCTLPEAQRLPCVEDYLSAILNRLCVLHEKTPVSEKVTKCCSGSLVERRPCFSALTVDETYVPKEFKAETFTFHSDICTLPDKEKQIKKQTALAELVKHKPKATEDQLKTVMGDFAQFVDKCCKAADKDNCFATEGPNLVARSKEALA

## O.O.O.[Cl][Au]([Cl])[Cl] [Au, gold(III) chloride trihydrate]
Albumin of rats; as soon as D1 (ethanol for 1 day)
  SEB test result in rat serum: positive

## [Cd] [Cd]
HSA [1]; serum samples, 100% retention
  atoms bound per molecule of albumin: ≤ 50 atoms per molecule of albumin
HSA [2]
  specificity (Sp): 98%
Albumin of rats; group D14 (ethanol for 14 days), Cu, Cd
  SEB test result in rat serum: positive

## [Cl][Cu][Cl] [Cu, copper(II) chloride]
HSA [3]
  ligand/HSA retention ratio: 40
HSA [1]; above 12 Cu atoms per albumin molecule
  retention when more Cu was added: ≤ 40%
HSA [1]; serum of patients with no liver dysfunction, average retention of 95%
  Cu atoms per albumin molecule retained on the ultracentrifugation filter: up to 12 atoms per albumin molecule
HSA [1]; up to 12 Cu atoms per albumin molecule
  average retention: 95%
HSA [4]
  atoms of Cu HSA is able to bind (reported): less than 2 atoms
HSA [2]
  specificity (Sp): 98%
HSA [5]; control patients, mean
  Ratio Cu/HSA, reference value: 4.3 μM/μg/L
HSA [5]
  sensitivity of discrimination of cirrhotic from control patients: 100%
  specificity of discrimination of cirrhotic from control patients: 72%
HSA [5]; individual cirrhotic patients 1-18, one value per patient, HSA/Cu 1/10
  Ratio Cu/HSA (ligand in the filtrate / albumin): 7.5 μM/μg/L and 4.97 μM/μg/L and 9.33 μM/μg/L and 15.85 μM/μg/L and 5.5 μM/μg/L and 10.45 μM/μg/L and 9.07 μM/μg/L and 6.86 μM/μg/L and 9.64 μM/μg/L and 7.54 μM/μg/L and 6.74 μM/μg/L and 4.76 μM/μg/L and 5.59 μM/μg/L and 8.25 μM/μg/L and 10.68 μM/μg/L and 11.02 μM/μg/L and 5.26 μM/μg/L and 5.56 μM/μg/L
HSA [5]; patient 19, NASH without cirrhosis
  Ratio Cu/HSA (ligand in the filtrate / albumin): 5.1 μM/μg/L

## CN(C)c1cccc2c(S(=O)(=O)N(C)CC(=O)O)cccc12 [dansylsarcosine, Dansylsarcosine Piperidinium Salt]
HSA [1]; serum samples, 100% retention, L-thyroxine not testable above 1/10 ratio (dissolution problems)
  molecules bound per molecule of albumin: ≤ 2.5 molecules per molecule of albu
HSA [2]
  specificity (Sp): 98%
HSA [5]; control patients, mean
  Ratio DS/HSA, reference value: 0.23 μM/μg/L
HSA [5]
  sensitivity of discrimination of cirrhotic from control patients: 100%
  specificity of discrimination of cirrhotic from control patients: 100%
HSA [5]; individual cirrhotic patients 1-18, one value per patient, HSA/dansylsarcosine 1/5, listed as DS
  Ratio DS/HSA (ligand in the filtrate / albumin): 4.77 μM/μg/L and 2.26 μM/μg/L and 5.71 μM/μg/L and 7.58 μM/μg/L and 0.78 μM/μg/L and 16.38 μM/μg/L
